In US20260193319A1, “PLATELET-BINDING PROTEINS AND CONJUGATES THEREOF, PARTICLES COMPRISING THEM AND USES THEREOF” (Haima Therapeutics, LLC, priority 2022, published 2026):
Several values for one entry are separate records, joined by “and”; a condition that tells them apart may be missing. Identical values can stand only once. Where a SMILES comes first, the peptide text is derived from it. Bridges are numbered along the chain shown (N, C = ends). [ ]: non-standard residue; d: D form. Pra = C#CC[C@H](N)C(=O)O; βAla = NCCC(=O)O

Columns and labels:
[1] = test system: human platelets (PRP stimulated with ADP); experiment: Peptide inhibition of platelet aggregation, light transmission aggregometry in human PRP/ADP; assay type: cell-based; settings: for Peptide Inhibition of Platelet Aggregation, pass/fail result: criterion: inhibition of platelet aggregation, FMP2 IC50 ≤ FMP1 IC50; for IC50: human PRP/ADP, final aggregation, log-dose vs response fit, approximate
Excerpt: The properties of the FMP2 peptide and peptide-decorated particles (synthetic platelet) were compared to those of the old FMP1 peptide. First, Chang et al. have shown that cyclic RGD peptides are able to selectively bind to activated platelets and prevent human platelet aggregation as measured via platelet light transmission aggregometry. This protocol was adapted and performed to compare the IC50 values of FMP1 and FMP2. Specifically, human whole blood was drawn from healthy, aspirin refraining donors via venipuncture into syringe containing 3.8% w/v sodium citrate. Platelet rich plasma (PRP) was obtained by centrifugation of whole blood in a tabletop centrifuge at 150×g for 15 minutes. Platelet aggregation experiments were performed with 225 μl of 25% o (v/v) diluted PRP stimulated with 25 μl of 10 μM adenosine 5′-diphosphate (ADP) (or saline as a negative control) on a Bio/Data PAP-8E Platelet Aggregation Profiler. 20 μl of saline containing 0.0001 μM to 250 μM of FMP1 or FMP2 (at each order of magnitude) were added to the 25% o diluted PRP, and final aggregation percentage was recorded. In GraphPad Prism®, a non-linear fit of log-dose vs. response was applied to the data, and the IC50 for each peptide was determined by calculating the intersection point at y=50.

[2] = biological target: GPIIb/IIIa on active human platelets (human) (UniProt P08514); experiment: cell-based or functional assay
Chain of UniProt P08514 (P08514 32-1039, chain 1 of 2): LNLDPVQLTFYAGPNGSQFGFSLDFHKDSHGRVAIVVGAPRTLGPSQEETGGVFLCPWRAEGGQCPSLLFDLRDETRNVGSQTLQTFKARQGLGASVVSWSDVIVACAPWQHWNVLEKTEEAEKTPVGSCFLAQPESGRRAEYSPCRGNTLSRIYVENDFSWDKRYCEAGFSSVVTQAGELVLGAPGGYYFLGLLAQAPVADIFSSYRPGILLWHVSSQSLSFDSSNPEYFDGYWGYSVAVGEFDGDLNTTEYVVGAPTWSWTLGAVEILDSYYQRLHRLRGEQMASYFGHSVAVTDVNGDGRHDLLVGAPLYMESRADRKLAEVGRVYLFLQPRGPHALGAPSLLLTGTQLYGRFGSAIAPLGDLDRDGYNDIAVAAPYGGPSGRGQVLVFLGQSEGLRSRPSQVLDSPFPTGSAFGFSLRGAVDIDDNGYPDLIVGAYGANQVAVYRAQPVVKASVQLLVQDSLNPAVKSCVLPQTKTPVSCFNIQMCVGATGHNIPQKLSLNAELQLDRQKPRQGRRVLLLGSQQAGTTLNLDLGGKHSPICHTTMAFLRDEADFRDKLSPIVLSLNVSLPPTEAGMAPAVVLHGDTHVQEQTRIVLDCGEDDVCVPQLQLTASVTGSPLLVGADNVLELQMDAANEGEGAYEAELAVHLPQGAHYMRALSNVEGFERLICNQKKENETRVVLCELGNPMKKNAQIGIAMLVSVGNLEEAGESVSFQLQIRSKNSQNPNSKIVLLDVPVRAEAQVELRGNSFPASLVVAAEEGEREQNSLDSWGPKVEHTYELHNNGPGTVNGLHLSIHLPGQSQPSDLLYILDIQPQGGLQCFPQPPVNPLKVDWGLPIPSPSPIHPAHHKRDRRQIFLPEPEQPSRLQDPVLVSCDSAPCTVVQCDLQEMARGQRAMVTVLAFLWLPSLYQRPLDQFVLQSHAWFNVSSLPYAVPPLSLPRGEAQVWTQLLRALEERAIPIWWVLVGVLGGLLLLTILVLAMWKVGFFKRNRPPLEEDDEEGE
Chain of UniProt P08514 (P05106 27-788, chain 2 of 2, further chain): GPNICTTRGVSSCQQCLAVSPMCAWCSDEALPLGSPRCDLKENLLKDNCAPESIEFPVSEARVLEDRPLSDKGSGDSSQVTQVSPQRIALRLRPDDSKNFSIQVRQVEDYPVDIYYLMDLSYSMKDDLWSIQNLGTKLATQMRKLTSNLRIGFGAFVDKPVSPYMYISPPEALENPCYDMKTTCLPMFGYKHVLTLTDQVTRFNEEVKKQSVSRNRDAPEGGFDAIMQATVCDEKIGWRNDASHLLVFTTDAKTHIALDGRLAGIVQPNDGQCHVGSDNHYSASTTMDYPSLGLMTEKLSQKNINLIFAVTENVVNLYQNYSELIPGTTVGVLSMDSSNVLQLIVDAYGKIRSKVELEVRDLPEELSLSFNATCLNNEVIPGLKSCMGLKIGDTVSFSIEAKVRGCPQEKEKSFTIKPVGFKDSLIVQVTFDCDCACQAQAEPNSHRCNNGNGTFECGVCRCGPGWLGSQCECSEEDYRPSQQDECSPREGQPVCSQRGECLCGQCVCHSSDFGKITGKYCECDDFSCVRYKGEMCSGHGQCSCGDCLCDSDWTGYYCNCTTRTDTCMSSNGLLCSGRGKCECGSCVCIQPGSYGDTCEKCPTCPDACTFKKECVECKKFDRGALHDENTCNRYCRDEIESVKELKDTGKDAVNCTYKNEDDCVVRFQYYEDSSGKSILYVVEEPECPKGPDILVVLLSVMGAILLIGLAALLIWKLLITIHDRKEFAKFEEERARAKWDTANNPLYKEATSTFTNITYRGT

IC50 of inhibition of ADP-stimulated human platelet aggregation (light transmission aggregometry, diluted PRP, final aggregation %) [2]	Compound	Peptide Inhibition of Platelet Aggregation, pass/fail result [1]	IC50 [1]	concentrations inhibiting platelet aggregation, FMP2 relative to FMP1 ([1]; comparison of IC50)
–	C#CC[C@H](N)C(=O)N[C@H]1CSSC[C@@H](C(=O)O)NC(=O)[C@H](CCCNC(=N)N)NC(=O)[C@H](Cc2ccc(OCC)cc2)NC(=O)[C@H](CC(=O)O)NC(=O)CNC(=O)[C@H](CCCNC(=N)N)NC(=O)[C@@H]2CCCN2C(=O)[C@H](CC(N)=O)NC1=O [FMP1, cyclo-{Pra}CNPRGD{Tyr(OEt)}RC, reference compound] (H-[Pra]CNPRGDY(Et)RC-OH; disulfide 2-10; N-terminus and C-terminus assumed)	Pass	~537 µM and 537 µM	–
–	CCOc1ccc(C[C@@H]2NC(=O)[C@H](CC(=O)O)NC(=O)CNC(=O)[C@H](CCCNC(=N)N)NC(=O)[C@@H]3CCCN3C(=O)[C@H](CC(N)=O)NC(=O)[C@H](CS)NC(=O)CCNC(=O)[C@H](CCCNC(=N)N)NC2=O)cc1 [FMP2, cyclo-(CNPRGD{Tyr(OEt)}R-β-A)] (cyclo(CNPRGDY(Et)R[βAla]))	Pass	~0.13 µM and 0.13 µM	over three orders of magnitude below FMP1
537 µM	FMP1, cyclo-{Pra}CNPRGD{Tyr(OEt)}RC trifluoroacetate salt (peptide)	–	–	–
0.13 µM	FMP2, cyclo-(CNPRGD{Tyr(OEt)}R-β-A) trifluoroacetate salt (peptide)	–	–	–
